Reference: patent publication US20260256778A1 (AbbVie Inc., priority 2023, published 2026)
In brackets after ≈: the same amount, converted by molar mass. Where two headings read alike, the source gives them in different places.

Assays:
[1] = system: inflammatory chemotactic proteins (CXCL9 and 10) and T-cell activation markers (IL12B and TNFSF9); assay: Serum type 1 inflammation biomarkers in the Phase 2 study; format: in vivo, human
Source text: (§1) No differences were apparent for active vs. stable subjects.

[2] = system: non-segmental vitiligo (NSV); conditions: for Percent CFB in F-VASI; LSMEAN (SE): Week 24, MMRM; for F-VASI 75; (%): Week 24, NRI
CXCL10 = assay: Serum CXCL10 level in the Phase 2 study; format: in vivo, human; conditions: by week 2, all dose groups
Source text: as §1

facial vitiligo area = assay: 3D digital imaging substudy of facial vitiligo area (Example 3); format: in vivo, human; design: F-VASI, Wk 24: scale not given here; conditions: for percent reduction of facial vitiligo area from Baseline by 3D imaging / Treatment effect size, Cohen's d of 3D Imaging / Treatment effect size, Cohen's d of F-VASI: Week 24
Source text: Specifically, multiple stereoscopic images were captured by a proprietary optical 3D scanner for a subset of patients in the referenced study. The data acquisition procedure and determination of vitiligo area using the 3D platform were as follows: • 1. Subject was scanned, acquiring 2D raw color images with real time feedback to generate 3D gray low-resolution model • 2. Full resolution color model generated and uploaded to cloud • 3. Web application opened by investigator, who manually selected threshold for each region of face. • 4. The detected vitiligo area was measured and results reported
To accomplish these objectives, twenty-seven subjects were enrolled into the 3D imaging substudy across 6 clinical sites. Twenty-one subjects had high quality 3D images available at Week 24 for analysis. Subjects who enrolled in the 3D digital imaging substudy were randomized as per the main protocol. The demographics, including Fitzpatrick skin types, and baseline disease characteristics in the 3D imaging substudy are provided in Table 9. With reference to Table 9, the demographics were in general consistent with the overall study population.
The quality and completeness of each scan was assessed by a visual inspection of the resulting 3D image by the technician and/or investigator, utilizing Wood's lamp visualization to set a threshold at Baseline, defined as the intensity value used to distinguish which 3D pixels within the image belong to the vitiligo area or to the normal skin area. The threshold value determined by the investigator at Baseline remained constant and applied to all post-baseline 3D images during the treatment period to reflect changes in the pigmentation. Each 3D image included 10 predefined anatomic regions of the face: forehead, left eye, right eye, left lateral cheek/temple, left middle cheek, nose, right middle cheek, right lateral cheek/temple, upper lip, and chin. Results are presented as the sum of vitiligo area measurement (cm^2) across all anatomic regions of the face.

[3] = Solubility of upadacitinib in different aqueous media at 37° C.; format: physicochemical
[4] = 6 mg QD, Week 24, change from baseline, 44 patients
[5] = 11 mg QD, Week 24, change from baseline, 45 patients
[6] = 22 mg QD, Week 24, change from baseline, 34 patients
[7] = 22 mg QD, one representative subject, Baseline to Week 24
[8] = Placebo (N = 3) vs 6 mg (N = 7)
[9] = Placebo (N = 3) vs 11 mg (N = 6)
[10] = Placebo (N = 3) vs 22 mg (N = 5)

SMILES: CC[C@@H]1CN(C(=O)NCC(F)(F)F)C[C@@H]1c1cnc2cnc3[nH]ccc3n12 [Upadacitinib, (3S,4R)-3-ethyl-4-(3H-imidazo[1,2-a]pyrrolo[2,3-e]pyrazin-8-yl)-N-(2,2,2-trifluoroethyl) pyrrolidine-1-carboxamide]
- Inhibition of type 1 inflammation biomarkers ([1]; 11 mg dose): maximal inhibition was achieved
- Change from baseline in CXCL9, CXCL10, IL12B and TNFSF9 ([1]; all upadacitinib doses, from week 2 through week 24, data not shown): Reductions from baseline were observed
- VitiQoL LS mean change ([2]; 6 mg): −7.5%
- Percent CFB in F-VASI; LSMEAN (SE) ([2]; 6 mg QD oral): −21.96 (5.162) Percent
- CFB in VitiQoL Total Score; LSMEAN (SE) ([2]; 6 mg QD, Week 24): −7.5 (2.27)
- Percent CFB in T-VASI; LSMEAN (SE) ([2]; 6 mg QD, Week 24): −13.87 (3.332) Percent
- T-VASI 50; (%) ([2]; 6 mg QD, Week 24): 6.1%
- Δ vs PBO, CFB in VitiQoL Total Score ([2]; 6 mg QD, Week 24): Δ = −1.9;
- Δ vs PBO, F-VASI 50 ([2]; 6 mg QD, Week 24): Δ = 6.6;
- Δ vs PBO, F-VASI 75 ([2]; 6 mg QD, Week 24): Δ = 6.9;
- Δ vs PBO, Percent CFB in F-VASI ([2]; 6 mg QD, Week 24): Δ = −7.60;
- Δ vs PBO, Percent CFB in T-VASI ([2]; 6 mg QD, Week 24): Δ = −7.45;
- Δ vs PBO, T-VASI 50 ([2]; 6 mg QD, Week 24): Δ = 3.7;
- Δ vs PBO, much better or a little better on PaGIC ([2]; 6 mg QD, Week 24): Δ = 14.3%
- Δ vs PBO, much better or a little better on PhGIC ([2]; 6 mg QD, Week 24): Δ = 18%
- Achieving much better or a little better on PaGIC (PaGIC-V score of 1 or 2), responders n ([2]; 6 mg QD, Week 24, N = 49): 17 n
- F-VASI 50; n ([2]; 6 mg QD, Week 24, N = 49): 8 n
- T-VASI 50; n ([2]; 6 mg QD, Week 24, N = 49): 3 n
- VNS score of 4 or 5, Responders n ([2]; 6 mg QD, Week 24, N = 49): 0 n
- F-VASI 75; n ([2]; 6 mg QD, Week 24, N = 49, NRI): 4 n
- F-VASI 75; (%) ([2]; 6 mg QD): 8.2%
- DLQI LS mean change ([2]; 6 mg QD, Week 24, change from baseline, 43 patients): −1.4%
- HADS Anxiety LS mean change [2, 4]: −0.7%
- HADS Depression LS mean change [2, 4]: 0.2%
- Percent CFB in F-VASI ([2]; 6 mg, Week 52, As Observed, N = 38): −52.7%
- Percent CFB in F-VASI ([2]; 6 mg, Week 52, Intent-to-Treat, MMRM/NRI-MI, N = 49): −52.3%
- Percent CFB in F-VASI; LSMEAN (SE) ([2]; 11 mg QD oral): −35.63 (5.297) Percent
- CFB in VitiQoL Total Score; LSMEAN (SE) ([2]; 11 mg QD, Week 24): −3.7 (2.30)
- Percent CFB in T-VASI; LSMEAN (SE) ([2]; 11 mg QD, Week 24): −17.26 (3.414) Percent
- T-VASI 50; (%) ([2]; 11 mg QD, Week 24): 6.4%
- Δ vs PBO, CFB in VitiQoL Total Score ([2]; 11 mg QD, Week 24): Δ = 1.9;
- Δ vs PBO, F-VASI 50 ([2]; 11 mg QD, Week 24): Δ = 29.3;
- Δ vs PBO, F-VASI 75 ([2]; 11 mg QD, Week 24): Δ = 17.8;
- Δ vs PBO, Percent CFB in F-VASI ([2]; 11 mg QD, Week 24): Δ = −21.27;
- Δ vs PBO, Percent CFB in T-VASI ([2]; 11 mg QD, Week 24): Δ = −10.84;
- Δ vs PBO, T-VASI 50 ([2]; 11 mg QD, Week 24): Δ = 3.8;
- Δ vs PBO, much better or a little better on PaGIC ([2]; 11 mg QD, Week 24): Δ = 38.5%
- Δ vs PBO, much better or a little better on PhGIC ([2]; 11 mg QD, Week 24): Δ = 37.8%
- Achieving much better or a little better on PaGIC (PaGIC-V score of 1 or 2), responders n ([2]; 11 mg QD, Week 24, N = 47): 26 n
- F-VASI 50; n ([2]; 11 mg QD, Week 24, N = 47): 18 n
- T-VASI 50; n ([2]; 11 mg QD, Week 24, N = 47): 3 n
- VNS score of 4 or 5, Responders n ([2]; 11 mg QD, Week 24, N = 47): 0 n
- F-VASI 75; n ([2]; 11 mg QD, Week 24, N = 47, NRI): 9 n
- F-VASI 75; (%) ([2]; 11 mg QD): 19.1%
- DLQI LS mean change ([2]; 11 mg QD, Week 24, change from baseline, 42 patients): −1.2%
- VitiQoL LS mean change ([2]; 11 mg QD, Week 24, change from baseline, 44 patients): −3.7%
- HADS Anxiety LS mean change [2, 5]: 0.0%
- HADS Depression LS mean change [2, 5]: −0.3%
- Percent CFB in F-VASI ([2]; 11 mg, Week 52, As Observed, N = 38): −64.8%
- Percent CFB in F-VASI ([2]; 11 mg, Week 52, Intent-to-Treat, MMRM/NRI-MI, N = 47): −62.8%
- Percent CFB in F-VASI; LSMEAN (SE) ([2]; 22 mg QD oral): −33.96 (5.793) Percent
- Percent CFB in T-VASI; LSMEAN (SE) ([2]; 22 mg QD, Week 24): −20.69 (3.731) Percent
- T-VASI 50; (%) ([2]; 22 mg QD, Week 24): 11.6%
- VNS score of 4 or 5, Responders (%) ([2]; 22 mg QD, Week 24): (11.6) %
- Δ vs PBO, CFB in VitiQoL Total Score ([2]; 22 mg QD, Week 24): Δ = −1.1;
- Δ vs PBO, F-VASI 50 ([2]; 22 mg QD, Week 24): Δ = 28.7;
- Δ vs PBO, F-VASI 75 ([2]; 22 mg QD, Week 24): Δ = 11.7;
- Δ vs PBO, Percent CFB in F-VASI ([2]; 22 mg QD, Week 24): Δ = −19.60;
- Δ vs PBO, Percent CFB in T-VASI ([2]; 22 mg QD, Week 24): Δ = −14.27;
- Δ vs PBO, T-VASI 50 ([2]; 22 mg QD, Week 24): Δ = 9.1;
- Δ vs PBO, much better or a little better on PaGIC ([2]; 22 mg QD, Week 24): Δ = 41.1%
- Δ vs PBO, much better or a little better on PhGIC ([2]; 22 mg QD, Week 24): Δ = 32%
- Achieving much better or a little better on PaGIC (PaGIC-V score of 1 or 2), responders n ([2]; 22 mg QD, Week 24, N = 43): 26 n
- F-VASI 50; n ([2]; 22 mg QD, Week 24, N = 43): 17 n
- T-VASI 50; n ([2]; 22 mg QD, Week 24, N = 43): 5 n
- VNS score of 4 or 5, Responders n ([2]; 22 mg QD, Week 24, N = 43): 5 n
- F-VASI 75; n ([2]; 22 mg QD, Week 24, N = 43, NRI): 6 n
- F-VASI 75; (%) ([2]; 22 mg QD): 14.0%
- HADS Anxiety LS mean change [2, 6]: −0.3%
- HADS Depression LS mean change [2, 6]: −0.1%
- VitiQoL LS mean change [2, 6]: −6.6%
- DLQI LS mean change ([2]; 22 mg QD, Week 24, change from baseline, 35 patients): −2.2%
- Percent CFB in F-VASI ([2]; 22 mg, Week 52, As Observed, N = 29): −60.8%
- Percent CFB in F-VASI ([2]; 22 mg, Week 52, Intent-to-Treat, MMRM/NRI-MI, N = 43): −59.2%
- CXCL10 levels (CXCL10): reduced to those in healthy volunteers
- % Change Facial Vitiligo Area by 3D Imaging at Week 24, Mean (facial vitiligo area; 6 mg QD, N 7): −15.20%
- % Change Facial Vitiligo Area by 3D Imaging at Week 24, Median (facial vitiligo area; 6 mg QD, N 7): −9.85%
- percent reduction of facial vitiligo area from Baseline by 3D imaging (facial vitiligo area; 6 mg QD): 15.2%
- % Change Facial Vitiligo Area by 3D Imaging at Week 24, Mean (facial vitiligo area; 11 mg QD, N 6): −34.96%
- % Change Facial Vitiligo Area by 3D Imaging at Week 24, Median (facial vitiligo area; 11 mg QD, N 6): −37.38%
- percent reduction of facial vitiligo area from Baseline by 3D imaging (facial vitiligo area; 11 mg QD): 34.96%
- % Change Facial Vitiligo Area by 3D Imaging at Week 24, Mean (facial vitiligo area; 22 mg QD, N 5): −23.00%
- % Change Facial Vitiligo Area by 3D Imaging at Week 24, Median (facial vitiligo area; 22 mg QD, N 5): −27.2%
- percent reduction of facial vitiligo area from Baseline by 3D imaging (facial vitiligo area; 22 mg QD): 23%
- Cherry 3D imaging vitiligo area, % change (facial vitiligo area; [7]): −27.2%
- F-VASI, % change (facial vitiligo area; [7]): −24.62%
- Cherry 3D imaging vitiligo area, % change (facial vitiligo area; 22 mg QD, one representative subject, Baseline to Week 24, listed as upadacitinib): −27.20%
- Cherry 3D imaging vitiligo area, Wk 24 (facial vitiligo area; 22 mg QD, one representative subject, Fitzpatrick Type III, baseline 215.84): 157.13 cm^2
- F-VASI, Wk 24 (facial vitiligo area; 22 mg QD, one representative subject, baseline 1.3): 0.98
- percent change from baseline in vitiligo extent score (VES) by 3D imaging evaluation (facial vitiligo area; 11 and 22 mg versus placebo, preliminary): greater percent change from baseline
- Treatment effect size, Cohen's d of 3D Imaging (facial vitiligo area; [8]): 0.50
- Treatment effect size, Cohen's d of F-VASI (facial vitiligo area; [8]): 0.76
- Treatment effect size, Cohen's d of 3D Imaging (facial vitiligo area; [9]): > 0.8
- Treatment effect size, Cohen's d of F-VASI (facial vitiligo area; [9]): 0.13
- Treatment effect size, Cohen's d of 3D Imaging (facial vitiligo area; Placebo (N = 3) vs 11 mg (N = 6), listed as UPA): 1.36
- Treatment effect size, Cohen's d of 3D Imaging (facial vitiligo area; [10]): > 0.8
- Treatment effect size, Cohen's d of F-VASI (facial vitiligo area; [10]): 0.61
- Treatment effect size, Cohen's d of 3D Imaging (facial vitiligo area; Placebo (N = 3) vs 22 mg (N = 5), listed as UPA): 1.02
- solubility ([3]; 50 mM carbonate buffer, 37 °C, pH 9.11, aqueous buffer, thermodynamic from solid): 199 ± 6 µg/mL (≈ 523 µM)
- Solubility (in words) ([3]; at low pH): good solubility
